Laboratory results taken from PubChem BioAssay AID248 (DTP/NCI, 2004).
“And” between values parts separate entries of the source, which are not always exact repeats. Equal entries are not always repeated. Inconclusive results and toxic doses are left out.

System: L1210 leukemia ip in BDF1 mice, survival T/C
Assay: NCI In Vivo Anticancer Drug Screen. Data for tumor model L1210 Leukemia (intraperitoneal) in B6D2F1 (BDF1) mice
Conditions: endpoint: mean survival time, higher = longer survival
In short: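 Each compound was tested against a transplantable tumor grown in mice. The endpoint was survival, with treated animals benchmarked against vehicle controls as a simple ratio.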

[1] = dose: 25.0 mg/kg/injection, schedule: Q01DX009 (ip), vehicle: saline with Tween-80
[2] = dose: 50.0 mg/kg/injection, schedule: Q01DX009 (ip), vehicle: saline with Tween-80
[3] = dose: 100.0 mg/kg/injection, schedule: Q04DX003 (ip), vehicle: saline with Tween-80
[4] = dose: 200.0 mg/kg/injection, schedule: Q01DX009 (ip), vehicle: saline with Tween-80
[5] = dose: 200.0 mg/kg/injection, schedule: Q04DX003 (ip), vehicle: saline with Tween-80

Structure (SMILES): O=C(Nc1ccc(NC(=O)Nc2cccc(C3=NCCN3)c2)cc1)Nc1cccc(C2=NCCN2)c1
- T/C (dose: 3.5 mg/kg/injection, schedule: Q#A X Z (ip), vehicle: saline): 106 % of control
- T/C (dose: 7.0 mg/kg/injection, schedule: Q01DX Z (ip), vehicle: saline): 115 % of control
- T/C (dose: 7.5 mg/kg/injection, schedule: Q01DX006 (iv), vehicle: saline): 98 % of control
- T/C (dose: 7.5 mg/kg/injection, schedule: Q#A X Z (ip), vehicle: saline): 117 % of control
- T/C (dose: 15.0 mg/kg/injection, schedule: Q01DX006 (iv), vehicle: saline): 107 % of control
- T/C (dose: 15.0 mg/kg/injection, schedule: Q01DX Z (ip), vehicle: saline): 111 % of control
- T/C (dose: 23.0 mg/kg/injection, schedule: Q03DX Z (ip), vehicle: saline): 116 % of control
- T/C (dose: 30.0 mg/kg/injection, schedule: Q01DX006 (iv), vehicle: saline): 116 % of control
- T/C (dose: 30.0 mg/kg/injection, schedule: Q01DX Z (sc), vehicle: carboxymethylcellulose (CMC)): 102 % of control
- T/C (dose: 47.0 mg/kg/injection, schedule: Q03DX Z (ip), vehicle: saline): 119 % of control
- T/C (dose: 55.0 mg/kg/injection, schedule: Q07DX Z (ip), vehicle: saline): 121 % of control
- T/C (dose: 60.0 mg/kg/injection, schedule: Q01DX010 (ip), vehicle: saline): 151 % of control and 153 % of control
- T/C (dose: 60.0 mg/kg/injection, schedule: Q01DX Z (im), vehicle: saline): 110 % of control
- T/C (dose: 60.0 mg/kg/injection, schedule: Q01DX Z (ip), vehicle: carboxymethylcellulose (CMC)): 286 % of control
- T/C (dose: 60.0 mg/kg/injection, schedule: Q01DX Z (sc), vehicle: carboxymethylcellulose (CMC)): 110 % of control
- T/C (dose: 94.0 mg/kg/injection, schedule: Q03DX Z (ip), vehicle: saline): 121 % of control
- T/C (dose: 120.0 mg/kg/injection, schedule: Q01DX010 (ip), vehicle: saline): 182 % of control and 215 % of control
- T/C (dose: 120.0 mg/kg/injection, schedule: Q01DX Z (im), vehicle: saline): 100 % of control
- T/C (dose: 120.0 mg/kg/injection, schedule: Q01DX Z (ip), vehicle: carboxymethylcellulose (CMC)): 151 % of control
- T/C (dose: 120.0 mg/kg/injection, schedule: Q01DX Z (sc), vehicle: carboxymethylcellulose (CMC)): 104 % of control
- T/C (dose: 148.0 mg/kg/injection, schedule: Q01DX Z (ip), vehicle: carboxymethylcellulose (CMC)): 208 % of control
- T/C (dose: 219.0 mg/kg/injection, schedule: Q07DX Z (ip), vehicle: saline): 154 % of control
- T/C (dose: 222.0 mg/kg/injection, schedule: Q01DX Z (ip), vehicle: carboxymethylcellulose (CMC)): 298 % of control
- T/C (dose: 240.0 mg/kg/injection, schedule: Q01DX010 (ip), vehicle: saline): 236 % of control and 263 % of control
- T/C (dose: 240.0 mg/kg/injection, schedule: Q01DX Z (ip), vehicle: carboxymethylcellulose (CMC)): 318 % of control
- T/C (dose: 333.0 mg/kg/injection, schedule: Q01DX Z (ip), vehicle: carboxymethylcellulose (CMC)): 353 % of control
- T/C (dose: 480.0 mg/kg/injection, schedule: Q01DX010 (ip), vehicle: saline): 112 % of control and 268 % of control
- T/C (dose: 480.0 mg/kg/injection, schedule: Q01DX Z (im), vehicle: saline): 184 % of control
- T/C (dose: 480.0 mg/kg/injection, schedule: Q01DX Z (ip), vehicle: carboxymethylcellulose (CMC)): 102 % of control and 242 % of control
- T/C (dose: 500.0 mg/kg/injection, schedule: Q01DX Z (ip), vehicle: carboxymethylcellulose (CMC)): 328 % of control

Structure (SMILES): CC(=O)c1ccc(N=NC2C(=O)N(c3ccccc3)N=C2C)cc1 (stereo not drawn)
- T/C (dose: 100.0 mg/kg/injection, schedule: Q01DX001 (ip), vehicle: saline): 96 % of control
- T/C (dose: 200.0 mg/kg/injection, schedule: Q01DX001 (ip), vehicle: saline): 94 % of control
- T/C (dose: 400.0 mg/kg/injection, schedule: Q01DX001 (ip), vehicle: saline): 102 % of control

Structure (SMILES): CN(C)CCCCCO
- T/C [1]: 96 % of control
- T/C [2]: 102 % of control and 87 % of control
- T/C (dose: 100.0 mg/kg/injection, schedule: Q01DX009 (ip), vehicle: saline with Tween-80): 91 % of control
- T/C [3]: 97 % of control
- T/C [4]: 100 % of control
- T/C [5]: 100 % of control

Structure (SMILES): CCN(C)CCC(C=O)(c1cccc2ccccc12)C(C)C (stereo not drawn)
- T/C (dose: 100.0 mg/kg/injection, schedule: Q04DX002 (ip), vehicle: saline): 100 % of control

Structure (SMILES): O=C(Nc1ccc(S(=O)(=O)F)cc1)Oc1ccc([N+](=O)[O-])cc1
- T/C [1]: 92 % of control and 93 % of control
- T/C (dose: 50.0 mg/kg/injection, schedule: Q01DX001 (ip), vehicle: saline with Tween-80): 103 % of control
- T/C [2]: 92 % of control and 89 % of control
- T/C (dose: 100.0 mg/kg/injection, schedule: Q01DX001 (ip), vehicle: saline with Tween-80): 105 % of control
- T/C (dose: 100.0 mg/kg/injection, schedule: Q04DX002 (ip), vehicle: saline with Tween-80): 95 % of control
- T/C [3]: 93 % of control
- T/C (dose: 200.0 mg/kg/injection, schedule: Q01DX001 (ip), vehicle: saline with Tween-80): 97 % of control
- T/C [4]: 98 % of control
- T/C (dose: 200.0 mg/kg/injection, schedule: Q04DX002 (ip), vehicle: saline with Tween-80): 96 % of control
- T/C [5]: 98 % of control
- T/C (dose: 400.0 mg/kg/injection, schedule: Q01DX001 (ip), vehicle: saline with Tween-80): 105 % of control
- T/C (dose: 400.0 mg/kg/injection, schedule: Q04DX002 (ip), vehicle: saline with Tween-80): 88 % of control
- T/C (dose: 400.0 mg/kg/injection, schedule: Q04DX003 (ip), vehicle: saline with Tween-80): 103 % of control
